Like-named read-outs stand apart in the source and are kept apart here.
Columns and labels:
[1] = for Pe: PAMPA-BBB, PBS:EtOH 70:30, mean ± SD of three independent experiments; for Pe (prediction) of BBB permeation: class from PAMPA-BBB Pe
Procedure: Thus, the brain passive permeability of the novel compounds was evaluated in vitro through the widely used PAMPA-BBB method [[50]

[2] = test system: L. infantum strain MCAN/ES/92/BCN722 promastigote forms; assay: Activity against promastigotes of L. infantum (acid phosphatase); format: cell-based, Leishmania infantum; details: promastigote form, mean ± SD of duplicate experiments performed at least twice
[3] = target: Electrophorus electricus AChE (EeAChE) (Electrophorus electricus, UniProt O42275); assay: biochemical; format: biochemical; details: mean ± SEM
[4] = test system: T. cruzi strain MHOM/ES/2203/BCN590 (Tcl) epimastigote forms; assay: Activity against epimastigotes of T. cruzi (cell counting); details: mean ± SD of duplicate experiments performed at least twice
in vitro = details: rat, rat skeletal muscle L6 cells
Procedure: (§1) Cytotoxicity against mammalian cells was assessed using microtitre plates following a described procedure [58]. Briefly, rat skeletal muscle L6 cells were seeded at 1 × 10^4 mL^−1 in 200 μL of growth medium containing different compound concentrations. The plates were incubated for 6 days at 37 °C and 20 μL resazurin was then added to each well. After a further 8 h incubation, the fluorescence was determined using a Spectramax plate reader.

[5] = test system: bloodstream form T. brucei (strain 221); assay: Trypanocidal activity against cultured bloodstream form T. brucei (resazurin); details: for IC50: mean of triplicate ± SEM; for IC90: pH 7.4, read-out: T. brucei IC90
Procedure: T. brucei in the logarithmic phase of growth were diluted back to 2.5 × 10^4 mL^−1 and aliquoted into 96-well plates. The compounds were then added at a range of concentrations and the plates incubated at 37 °C. Each drug concentration was tested in triplicate. Resazurin was added after 48 h and the plates incubated for a further 16 h and the plates then read in a Spectramax plate reader. Results were analysed using GraphPad Prism.

[6] = test system: rat skeletal myoblast L6 cells; assay: cells; details: L6, read-out: L6 cells IC50
Procedure: as §1

[7] = Trypanosoma cruzi, read-out: T. cruzi IC50, epimastigote form
[8] = read-out: T. cruzi IC50, epimastigote form
[9] = SILi: selectivity index as the ratio of cytotoxic to anti-L. infantum IC50 values, L6 IC50 / L. infantum IC50
[10] = SITb: selectivity index as the ratio of cytotoxic to anti-T. brucei IC50 values, L6 IC50 / T. brucei IC50
[11] = SITc: selectivity index as the ratio of cytotoxic to anti-T. cruzi IC50 values, L6 IC50 / T. cruzi IC50
[12] = Trypanosoma brucei, pH 7.4, read-out: T. brucei IC50, bloodstream form, pH 7.4
[13] = read-out: T. brucei IC50, bloodstream form, pH 7.4

Chain of Electrophorus electricus AChE (EeAChE) (O42275 24-633): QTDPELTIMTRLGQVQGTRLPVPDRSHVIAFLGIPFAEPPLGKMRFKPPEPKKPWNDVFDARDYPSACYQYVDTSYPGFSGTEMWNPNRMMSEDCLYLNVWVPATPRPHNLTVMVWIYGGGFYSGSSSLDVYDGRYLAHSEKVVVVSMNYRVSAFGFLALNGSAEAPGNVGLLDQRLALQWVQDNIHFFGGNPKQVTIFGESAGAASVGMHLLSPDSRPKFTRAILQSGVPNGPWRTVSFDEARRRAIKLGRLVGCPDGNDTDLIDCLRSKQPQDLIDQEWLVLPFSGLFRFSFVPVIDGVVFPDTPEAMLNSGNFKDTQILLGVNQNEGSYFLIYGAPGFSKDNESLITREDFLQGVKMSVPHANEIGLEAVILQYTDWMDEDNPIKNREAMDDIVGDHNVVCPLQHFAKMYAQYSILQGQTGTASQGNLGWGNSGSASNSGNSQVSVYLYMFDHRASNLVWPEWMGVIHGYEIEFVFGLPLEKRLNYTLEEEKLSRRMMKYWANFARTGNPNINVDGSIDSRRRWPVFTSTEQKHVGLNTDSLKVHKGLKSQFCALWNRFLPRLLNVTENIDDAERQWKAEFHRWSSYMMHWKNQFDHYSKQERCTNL

| Compound | Pe [1] | Pe (prediction) of BBB permeation [1] | IC50 ([2]; Leishmania infantum) | IC50 [2] | IC50 [3] | IC50 [4, 7] | IC50 [4, 8] | selectivity ratio at 6 days (in vitro; [9]) | selectivity ratio at 6 days (in vitro; [10]) | selectivity ratio at 6 days (in vitro; [11]) | IC50 [5, 12] | IC90 ([5]; Trypanosoma brucei) | IC50 [6] | IC50 [5, 13] |
| --- | --- | --- | --- | --- | --- | --- | --- | --- | --- | --- | --- | --- | --- | --- |
| NCc1ccc(-c2nc3ccc(Cl)cc3c3c2CCCN3Cc2ccccc2)cc1 [Compound 3, 4-{1-Benzyl-9-chloro-1,2,3,4-tetrahydrobenzo[h][1,6]naphthyridin-5-yl}benzylamine] | 7.4 ± 0.2 10^−6 cm s^−1 | CNS+ (compounds of high BBB permeation (CNS+): Pe (10^−6 cm s^−1) > 5.25) | ~30 µM | 31.1 ± 2.9 µM | 3.67 ± 0.55 µM | 9.47 µM | 9.5 ± 2.5 µM | 0.2 | 6.8 | 0.7 | 1 ± 0.03 µM | 1.19 ± 0.02 µM | 6.78 ± 1.26 µM |  |
| N#Cc1ccc(-c2nc3ccc(Cl)cc3c3c2CCN3)cc1 [Compound 26, 4-{8-Chloro-2,3-dihydro-1H-pyrrolo[3,2-c]quinolin-4-yl}benzonitrile] | 6.8 ± 0.3 10^−6 cm s^−1 | CNS+ (compounds of high BBB permeation (CNS+): Pe (10^−6 cm s^−1) > 5.25) | > 200 µM |  | 1.19 ± 0.15 µM | > 150 µM |  |  |  |  | > 30 µM | > 30 µM |  |  |
| N#Cc1ccc(-c2nc3ccc(Cl)cc3c3c2CCCN3)cc1 [Compound 27, 4-{9-Chloro-1,2,3,4-tetrahydrobenzo[h][1,6]naphthyridin-5-yl}benzonitrile] | 14.3 ± 0.1 10^−6 cm s^−1 | CNS+ (compounds of high BBB permeation (CNS+): Pe (10^−6 cm s^−1) > 5.25) | 15.3 ± 3.6 µM |  | 1.13 ± 0.17 µM | 147 ± 19 µM |  | 2.5 | 6.4 | 0.3 | 6.07 ± 0.54 µM | 10.5 ± 0.2 µM | 38.8 ± 1.7 µM |  |
| N#Cc1ccc(-c2nc3ccc(Cl)cc3c3c2CCCCN3)cc1 [Compound 28, 4-{10-Chloro-2,3,4,5-tetrahydro-1H-azepino[3,2-c]quinolin-6-yl}benzonitrile] | 20.0 ± 1.1 10^−6 cm s^−1 | CNS+ (compounds of high BBB permeation (CNS+): Pe (10^−6 cm s^−1) > 5.25) | 13.7 ± 2.2 µM |  | 2.2 ± 0.3 µM | 64.6 ± 12.5 µM |  |  |  |  | 17.3 ± 2.1 µM | 28.6 ± 6.7 µM |  |  |
| N#Cc1ccc(-c2nc3cc(Cl)ccc3c3c2CCCN3)cc1 [Compound 29, 4-{8-Chloro-1,2,3,4-tetrahydrobenzo[h][1,6]naphthyridin-5-yl}benzonitrile] | 16.2 ± 0.1 10^−6 cm s^−1 | CNS+ (compounds of high BBB permeation (CNS+): Pe (10^−6 cm s^−1) > 5.25) | 19 ± 3 µM |  | 3.27 ± 0.43 µM | 39.4 ± 0.2 µM |  |  |  |  | > 30 µM | > 30 µM |  |  |
| NCc1ccc(-c2nc3ccc(Cl)cc3c3c2CCN3)cc1 [Compound 30, 4-{8-Chloro-2,3-dihydro-1H-pyrrolo[3,2-c]quinolin-4-yl}benzylamine] | 7.4 ± 2.6 10^−6 cm s^−1 | CNS+ (compounds of high BBB permeation (CNS+): Pe (10^−6 cm s^−1) > 5.25) | 6.5 ± 1.4 µM |  | 0.87 ± 0.08 µM | ~30 µM | 37.3 ± 11 µM | 0.4 | 2.8 | 0.1 | 0.92 ± 0.05 µM | 1.57 ± 0.03 µM | 2.54 ± 0.92 µM |  |
| NCc1ccc(-c2nc3ccc(Cl)cc3c3c2CCCN3)cc1 [Compound 31, 4-{9-Chloro-1,2,3,4-tetrahydrobenzo[h][1,6]naphthyridin-5-yl}benzylamine] | 4.6 ± 0.2 10^−6 cm s^−1 |  | 11.6 ± 2.5 µM |  | 0.97 ± 0.02 µM | 50.5 ± 14.3 µM |  | 0.8 | 3.7 | 0.2 | 2.44 ± 0.13 µM | 3.48 ± 0.05 µM | 8.92 ± 0.25 µM |  |
| NCc1ccc(-c2nc3ccc(Cl)cc3c3c2CCCCN3)cc1 [Compound 32, 4-{10-Chloro-2,3,4,5-tetrahydro-1H-azepino[3,2-c]quinolin-6-yl}benzylamine] | 11.6 ± 0.2 10^−6 cm s^−1 | CNS+ (compounds of high BBB permeation (CNS+): Pe (10^−6 cm s^−1) > 5.25) | 5 to 8 µM | 4.8 ± 0.7 µM | 1.2 ± 0.13 µM | ~30 µM | 32.4 ± 0.6 µM | 1.5 | 3 | 0.2 | 2.33 ± 0.12 µM | 3.35 ± 0.05 µM | 7.02 ± 0.27 µM |  |
| NCc1ccc(-c2nc3cc(Cl)ccc3c3c2CCCN3)cc1 [Compound 33, 4-{8-Chloro-1,2,3,4-tetrahydrobenzo[h][1,6]naphthyridin-5-yl}benzylamine] | 4.0 ± 1.0 10^−6 cm s^−1 |  | 13 ± 0.6 µM |  | 0.44 ± 0.04 µM | 76.1 ± 3.2 µM |  | 0.2 | 2.5 | 0.04 | 1.25 ± 0.05 µM | 2.12 ± 0.02 µM | 3.07 ± 0.66 µM |  |
| N#Cc1ccc(-c2nc3cc(Cl)ccc3cc2CCCN)cc1 [Compound 35, 4-[3-(3-Aminopropyl)-7-chloroquinolin-2-yl]benzonitrile] | 18.3 ± 0.6 10^−6 cm s^−1 | CNS+ (compounds of high BBB permeation (CNS+): Pe (10^−6 cm s^−1) > 5.25) | ~15 µM | 16.2 ± 4 µM |  | 78.8 ± 1.7 µM |  | 1.3 | 4.9 | 0.3 | ~5 µM | 5.61 ± 0.05 µM | 20.4 ± 0.4 µM | 4.16 ± 0.07 µM |
| N#Cc1ccc([C@H]2Nc3ccc(Cl)cc3[C@@H]3OCCC[C@H]23)cc1 [Compound 37] | 7.0 ± 0.7 10^−6 cm s^−1 | CNS+ (compounds of high BBB permeation (CNS+): Pe (10^−6 cm s^−1) > 5.25) | > 200 µM |  |  | 676 ± 37 µM |  |  |  |  | > 30 µM | > 30 µM |  |  |
| N#Cc1ccc(-c2nc3ccc(Cl)cc3c3c2CCCO3)cc1 [Compound 38, 4-{9-Chloro-3,4-dihydro-2H-pyrano[3,2-c]quinolin-5-yl}benzonitrile] | 29.7 ± 3.8 10^−6 cm s^−1 | CNS+ (compounds of high BBB permeation (CNS+): Pe (10^−6 cm s^−1) > 5.25) | 23.5 ± 2.4 µM |  | 2.7 ± 0.45 µM | 178 ± 92 µM |  | 1.5 | 3.8 | 0.2 | 9.61 ± 0.27 µM | 13.7 ± 1 µM | 36.3 ± 8.1 µM |  |
| Clc1ccc2nc(-c3ccco3)c3c(c2c1)OCCC3 [Compound 42, 9-Chloro-5-(2-furyl)-3,4-dihydro-2H-pyrano[3,2-c]quinoline] | 3.5 ± 0.4 10^−6 cm s^−1 |  | 38.4 ± 21.6 µM |  | 16.3 ± 1.5 µM | 76.1 ± 7.8 µM |  |  |  |  | 21.7 ± 1.2 µM | 29.3 ± 0.5 µM |  |  |
| Clc1ccc2nc(-c3cccs3)c3c(c2c1)OCCC3 [Compound 43, 9-Chloro-3,4-dihydro-5-(2-thienyl)-2H-pyrano[3,2-c]quinoline] | 14.4 ± 1.6 10^−6 cm s^−1 | CNS+ (compounds of high BBB permeation (CNS+): Pe (10^−6 cm s^−1) > 5.25) | 51.4 ± 2.3 µM |  | 9.39 ± 0.82 µM | > 250 µM |  |  |  |  | 18 ± 0.4 µM | 27.6 ± 1.1 µM |  |  |
| OCCCc1cc2cc(Cl)ccc2nc1-c1ccco1 [Compound 44, 3-[6-chloro-2-(2-furyl)quinolin-3-yl]-1-propanol] | 10.3 ± 1.5 10^−6 cm s^−1 | CNS+ (compounds of high BBB permeation (CNS+): Pe (10^−6 cm s^−1) > 5.25) | 19.3 ± 11.3 µM |  |  | 29.3 ± 12 µM |  |  |  |  | > 25 µM | 70.6 ± 1.5 µM |  | 35.7 ± 1.8 µM |
| OCCCc1cc2cc(Cl)ccc2nc1-c1cccs1 [Compound 45, 3-[6-chloro-2-(2-thienyl)quinolin-3-yl]-1-propanol] | 28.4 ± 1.2 10^−6 cm s^−1 | CNS+ (compounds of high BBB permeation (CNS+): Pe (10^−6 cm s^−1) > 5.25) | 37.3 ± 2.3 µM |  |  | 51.7 ± 19.4 µM |  |  |  |  | > 25 µM | 42.9 ± 1.5 µM |  | 28 ± 0.7 µM |
| N#CCCc1cc2cc(Cl)ccc2nc1-c1cccs1 [Compound 47, 3-[6-Chloro-2-(2-thienyl)quinolin-3-yl]propanenitrile] | 17.9 ± 1.1 10^−6 cm s^−1 | CNS+ (compounds of high BBB permeation (CNS+): Pe (10^−6 cm s^−1) > 5.25) | 23.3 ± 5.9 µM |  |  | 51.7 ± 5.1 µM |  |  |  |  | > 25 µM | > 30 µM |  | > 30 µM |
| CCN(CC)CCCc1cc2cc(Cl)ccc2nc1-c1cccs1 [Compound 50, N-{3-[6-Chloro-2-(2-thienyl)quinolin-3-yl]propyl}-N,N-diethylamine] | 20.9 ± 0.5 10^−6 cm s^−1 | CNS+ (compounds of high BBB permeation (CNS+): Pe (10^−6 cm s^−1) > 5.25) | ~15 µM | 13.6 ± 1.5 µM |  | 77.6 ± 11.2 µM |  | 1.1 | 2.3 | 0.2 | ~5 µM | 12.6 ± 0.9 µM | 14.7 ± 2.3 µM | 6.33 ± 0.94 µM |
